Data set [1] can be described thus: method code SF, from DOI: 10.1515/znc-1979-1128. The conditions noted are these: pH 7.4.
A short description of data set [2]: method code HPLC, from DOI: 10.1016/j.ejmech.2015.05.022, PMID: 26005028. The conditions noted are these: pH 7.1.
A short description of data set [3]: method code SF-RC, from DOI: 10.1016/s0969-8051(01)00233-5, PMID: 11518650.
Assay in data set [4]: not given
The source holds these as a separate data set.

Assay in data set [5]: not given
The source holds these as a separate data set.

Data set [6] in a line: from Wang, L.; Xu, L.; Xu, O.; Tian, L.; Zheng, Z. (1989). Simultaneous determination of partition coefficients and acid dissociation constants of some organic dibasic acids and diacidic bases in the ….
Data set [7] is described as follows: method code SF-HPLC, from DOI: 10.1021/jm00169a024, PMID: 2194033. To be noted: pH 7.4.
Data set [8] is described as follows: method code SF-HPLC, from DOI: 10.1016/0378-5173(91)90200-8. To be noted: pH 7.4.
Data set [9] can be described thus: method code SF-HPLC, from DOI: 10.1016/0045-6535(86)90532-1. The conditions noted are these: pH 6.5.
A short description of data set [10]: method code SF-GLC, from DOI: 10.1016/0166-445x(88)90052-5.
The nature of data set [11]: method code SF-AS, from DOI: 10.1021/jm0104926, PMID: 11960499.
Data set [12] in a line: method code HPLC, from DOI: 10.1016/j.bmcl.2004.01.062, PMID: 15026043. To be noted: pH 5.5.
The nature of data set [13]: method code SF-HPLC, from DOI: 10.1002/jccs.199500138.
Assay in data set [14]: not given
The source holds these as a separate data set.

A short description of data set [15]: method code SF-GLC, from DOI: 10.1002/jps.2600620103, PMID: 4734195.
A short description of data set [16]: method code SF-AS, from Lee, B.; Shin, J.; Lim, M.; Jang, T.; Park, J.; Kim, K.; Kang, W. (1997). Partition Property of 5-Nitrothiopyrimidine Nucleoside. Bull Korean Chem Soc, 18(7)734-736. The conditions noted are these: pH 7.0.
A short description of data set [17]: method code SF-CR+AS, from DOI: 10.1007/bf00500994, PMID: 4267539. The conditions noted are these: pH 7.4.
Data set [18] in a line: method code SF-AS, from DOI: 10.1016/0041-008x(67)90079-8.
The nature of data set [19]: method code SF-AS, from DOI: 10.1002/jps.2600710122.
Assay in data set [20]: not given
This is another data set of the same source.

Data set [21] is described as follows: method code SF-AS, from DOI: 10.1016/0378-5173(80)90061-7.
Assay in data set [22]: not given
This is another data set of the same source.

Assay in data set [23]: not given
This is another data set of the same source.

Assay in data set [24]: not given
This is another data set of the same source.

Assay in data set [25]: not given
The source holds these as a separate data set.

Data set [26] in a line: method code SF-AS, from DOI: 10.1016/j.ejmech.2011.02.056, PMID: 21420207.
Assay in data set [27]: not given
The source holds these as a separate data set.

Data set [28] can be described thus: method code SF-RC, from DOI: 10.1023/a:1015867608405, PMID: 1614980. The conditions noted are these: pH 7.4.
Assay in data set [29]: not given
The source holds these as a separate data set.

Square brackets hold non-standard residues; d marks the D form. Peptide text beside a SMILES is read from it. NMeF = CN[CH](Cc1ccccc1)C(=O)O

As a reminder, the logD is the decadic logarithm of the distribution of all forms, ionised or not, between an organic phase and buffer at a given pH. High values mean a more lipophilic compound, low ones a more hydrophilic compound. The term logP denotes the decadic logarithm of the partition coefficient of the neutral form, usually between octanol and water. A lower logP goes with lower lipophilicity.

Molecule `CC1=C(C)C(O)N(c2ccc(C)c(C)c2)C1=O` (centres undefined) showed a pH-dependent lipophilicity (logD) in data set [1] of 2.36. For the molecule `COC(=O)CBr`, in data set [2], the logD turned out to be 0.77. As for `CCN(CC)CCF`, the log partition coefficient (logP) in [3] amounted to 0.94. In data set [2], `CCCCCCNC(=O)CBr` registered a pH-dependent lipophilicity (logD) of 2.18. The molecule `Fc1ccccc1` showed a logP of 2.01.

As to `ClC(Cl)Br`, in data set [4], the logP is 2.1. In the case of `CC[C@H]1OC(=O)C[C@@H](O)[C@H](C)[C@@H](O[C@@H]2O[C@H](C)C[C@H](N(C)C)[C@H]2O)[C@@H](CC=O)C[C@@H](C)C(=O)/C=C/[C@]2(C)O[C@H]2[C@@H]1C`, in [5], the logP was found to be 2.19. In data set [6], `Nc1cccc(C(=O)O)c1` showed a logP of 0.65. Regarding `CCN1CC(C(O)[C@H](CC2CCCCC2)NC(=O)[C@H](Cc2cnc[nH]2)NC(=O)[C@@H](CC(=O)N(C)CCOCOC)Cc2ccccc2)OC1=O` (some centres undefined), the logD in [7] was 2.49. Regarding `CCC(C(=O)OCc1ccc(COC(=O)C(CC)C(COC(C)=O)Cc2cncn2C)cc1)C(COC(C)=O)Cc1cncn1C` (centres undefined), the log distribution coefficient (logD) in data set [8] worked out at 3.04. In the case of `S=C1NCCN1`, the pH-dependent lipophilicity (logD) in data set [9] is -0.66. For `CCCCC1CO1` (centres undefined), the logP in data set [10] was 1.95. `FC(F)(C(Cl)Br)C1N=N1` (centres undefined) showed a lipophilicity (logP) in [11] of 1.9.

Take `CC(C)OC(=O)C(Cc1ccc(OC(=O)N(C)C)cc1)NC(=O)C1N(S(=O)(=O)c2cnn(C)c2)CSC1(C)C` (centres undefined): the logD in data set [12] stood at 2.46. As to `CCN1CC(C(O)[C@H](CC2CCCCC2)NC(=O)[C@H](Cc2cnc[nH]2)NC(=O)[C@@H](CC(=O)N(C)CCOC)Cc2ccccc2)OC1=O` (some centres undefined), in data set [7], the logD is 2.45.

The molecule `CC(=O)O[C@@H]1C[C@@H]([C@@H](C)CC/C=C(\C)C(=O)O)[C@]2(C)CC=C3C(=CCC4C(C)(C)[C@H](O)CC[C@@]34C)[C@@]12C` (some centres undefined) returned a lipophilicity (logP) in [13] of 2.71. In the case of `Nc1ccc(S(=O)(=O)NC(=O)c2ccccc2)cc1`, in data set [14], the log partition coefficient (logP) was 1.46. Molecule `OCC(Cl)Cl` gave a log partition coefficient (logP) in [15] of 0.37.

`CCC(C(=O)OCc1ccc(COC(=O)C(CC)C(COC(=O)CC(=O)OC)Cc2cncn2C)cc1)C(COC(=O)CC(=O)OC)Cc1cncn1C` (centres undefined) yielded a log distribution coefficient (logD) in data set [8] of 2.76. In [16], `O=[N+]([O-])c1c[nH]c(=S)[nH]c1=S` returned a pH-dependent lipophilicity (logD) of 0.52. In the case of `FC(Cl)C(F)(F)C1(Br)N=N1` (centres undefined), the lipophilicity (logP) in data set [11] was 2.18. In turn, `CCOC(=O)CC(Cc1cncn1C)C(CC)C(=O)OCc1ccc(COC(=O)C(CC)C(CC(=O)OCC)Cc2cncn2C)cc1` (centres undefined) registered a pH-dependent lipophilicity (logD) in data set [8] of 4.08.

In [17], `OCC(Cl)(Cl)Cl` came in with a logD of 1.42. In [18], `Clc1ccc(Cl)nc1` showed a log partition coefficient (logP) of 2.4. In turn, `Clc1cc(Cl)c(Cl)nc1Cl` yielded a log partition coefficient (logP) in data set [18] of 3.32. In [19], `Nc1nc(NC(=O)C(F)(F)C(F)(F)C(F)(F)F)n[nH]1` displayed a logP of 1.54.

In data set [20], `CCN(CC)C(=O)SCc1ccc(Cl)cc1` showed a lipophilicity (logP) of 3.78. Same read-out and setting: in the case of `Cc1cc(O)no1` it was 0.26.

`CCCCNC(=S)NCCCC` showed a pH-dependent lipophilicity (logD) in [9] of 2.75. `COC(=O)CCCO` yielded a log partition coefficient (logP) in data set [21] of -0.06. For the molecule `CC(=O)OCCCCOC(C)=O`, in data set [22], the log partition coefficient (logP) was 0.01. In data set [23], `CCCCOC(C)=O` displayed a lipophilicity (logP) of 1.69. The molecule `CC(O)C(F)(F)F` (centres undefined) registered a logP in data set [15] of 0.71. In data set [5], `CC[C@H]1OC(=O)[C@H](C)[C@@H](O[C@H]2C[C@@](C)(OC)[C@@H](O)[C@H](C)O2)[C@H](C)[C@@H](O[C@@H]2O[C@H](C)C[C@H](N(C)C)[C@H]2O)[C@](C)(O)C[C@@H](C)C(=O)[C@H](C)[C@@H](O)[C@]1(C)O` displayed a log partition coefficient (logP) of 3.06. Still for that read-out and setting: for `CO[C@@H]1[C@@H](O[C@@H]2O[C@H](C)[C@@H](O)[C@H](N(C)C)[C@H]2O)[C@@H](CC=O)C[C@@H](C)C(=O)/C=C\[C@H]2O[C@H]2C[C@@H](C)OC(=O)C[C@H]1OC(C)=O` the value was 0.3. The molecule `CCN1CC(C(O)[C@H](CC2CCCCC2)NC(=O)[C@H](Cc2cnc[nH]2)NC(=O)[C@@H](Cc2ccc(OC)cc2)NC(=O)N2CCOCC2)OC1=O` (some centres undefined) displayed a logD in [7] of 2.11. In data set [24], `CCCC(C)O` (centres undefined) showed a logP of 1.34. As for `CN(C)C(=O)Oc1ccc(CC(NC(=O)C2N(S(=O)(=O)c3cnn(C)c3)CSC2(C)C)C(=O)OCC(C)(C)C)cc1` (centres undefined), in data set [12], the logD was determined as 3.42. In [25], `ClC(Cl)(Cl)Cl` displayed a logP of 2.59. `CCCCCCCCCCCC(=O)N[C@H]1C[C@H](O[C@H]2C[C@](O)(C(=O)CO)Cc3c(O)c4c(c(O)c32)C(=O)c2c(OC)cccc2C4=O)O[C@@H](C)[C@H]1O` gave a logP in [26] of 1.96.

Regarding `CC(=O)OC1CCC2(C)C3=CCC4(C)C(C(C)CCC=C(C)C(=O)O)CC(O)C4(C)C3=CCC2C1(C)C` (centres undefined), the lipophilicity (logP) in [13] is 2.72. `CCC#N` registered a logP in data set [14] of 0.1.

`CCCCCCCCCCCCCCCC(=O)N[C@H]1C[C@H](O[C@H]2C[C@](O)(C(=O)CO)Cc3c(O)c4c(c(O)c32)C(=O)c2c(OC)cccc2C4=O)O[C@@H](C)[C@H]1O` registered a log partition coefficient (logP) in data set [26] of 2.19. In the case of `ClC(Br)Br`, the log partition coefficient (logP) in data set [4] came out at 2.24. Molecule `C=CCBr` displayed a logP in data set [22] of 1.9. Turning to `CC(=CCCC(C)C1CC(O)C2(C)C3=CCC4C(C)(CCC(O)C4(C)C)C3=CCC12C)C(=O)O` (centres undefined), the lipophilicity (logP) in data set [13] was determined as 2.69.

In turn, `NC(=O)c1cssc1=S` showed a log partition coefficient (logP) in data set [27] of 0.3. `CC(C)=O`: the log partition coefficient (logP) was -0.17. Turning to `c1ncncn1`, the log distribution coefficient (logD) in [1] was -0.73. `CC(=O)N(C)C(Cc1ccccc1)C(=O)N(C)C(Cc1ccccc1)C(=O)N(C)C(Cc1ccccc1)C(N)=O` (centres undefined) (Ac-[NMeF]-[NMeF]-[NMeF]-NH2; configuration not given here): the logD in data set [28] was 2.92.

For `CCOC(C)=O`, the logP in data set [23] worked out at 0.53. For the molecule `C1OC1C1CO1` (centres undefined), in data set [10], the logP was -0.28.

With `O=CC(Cl)(Cl)Cl`, in data set [17], the pH-dependent lipophilicity (logD) is 1.61. For `CCCC`, the logP in data set [25] came to 2.74. In turn, `O=C(O)CCC(=O)O` yielded a logP in data set [6] of -0.61.

In turn, `CC(=O)Nc1n[nH]c(NC(C)=O)n1` came in with a lipophilicity (logP) in data set [19] of -1.01. `Cc1c(-c2cnccn2)ssc1=S` came in with a lipophilicity (logP) in data set [27] of 2.79. `CN(C)CCF` displayed a lipophilicity (logP) in data set [3] of 0.36. As to `O=Cc1ccncc1`, the log partition coefficient (logP) in [29] turned out to be 0.23. With `O=c1[nH]cc([N+](=O)[O-])c(=O)[nH]1`, the logD in [16] is -1.38. With `CCCCCCCC(=O)N[C@H]1C[C@H](O[C@H]2C[C@](O)(C(=O)CO)Cc3c(O)c4c(c(O)c32)C(=O)c2c(OC)cccc2C4=O)O[C@@H](C)[C@H]1O`, the logP in data set [26] came to 1.81. Turning to `CCC(C)O` (centres undefined), the log partition coefficient (logP) in data set [24] turned out to be 0.81.

The molecule `Clc1ccncc1` registered a logP in data set [29] of 1.37. `O=C1CCCO1` came in with a lipophilicity (logP) in data set [21] of -0.31.

For the origin of these results see the SangsterLogP compilation.
